For series [1], the system named is human inducible NO synthase (hiNOS) gene. The series can be described thus: Expression of the human inducible NO synthase (hiNOS) gene, firefly luciferase reporter in A5 cells. Format: cell-based. The following applies: IL-1β (1 ng/ml)+TNF-α (500 ng/ml), firefly luciferase activity 24 hours later, read-out: IL-1β + TNF-α stimulation IC50 (inhibitory effect on the expression of the hiNOS gene). The procedure: Experiment 1. Effect of compounds on the expression of the human inducible NO synthase (hiNOS) gene
The experiment was carried out using A5 cells (human lung carcinoma cell line A549 cells (ATCC, CCL185) stably transfected with NOS53+F) previously reported by the inventors (Nunokawa, Y. et al., (1997) Biochem. Biophys. Res. Commun. 233, 523-526).
Compounds described in Examples were added to A5 cells simultaneously with IL-1β (1 ng/ml)+TNF-α (500 ng/ml) to investigate the inhibitory effect on the firefly luciferase activity 24 hours later.
The activity of firefly luciferase was measured based on the protocol by the Luciferase Assay System (Promega, U.S.A.).
The inhibitory effect of the compounds claimed in the present invention on the expression of the hiNOS gene was expressed as IC50 value in Table 1.
(In general: Reporter assays use an easily measured gene product as a stand-in for the process of interest.)

Series [2] deals with NO production. The series can be described thus: NO production of LPS-stimulated RAW264.7 cells (Griess' method). In kind it is cell-based, mouse. Conditions: LPS (10 μg/ml), 24 hours after the stimulation. The source says:
(§1) Experiment 3. Effect of lipopolysaccharide (LPS) stimulation on NO and TNF-α production
(§2) When various cells are stimulated with LPS, NV-κB is activated which results in the expression and induction of proteins represented by NOS, TNF-α, and thereby the cells start to produce NO and/or TNF-α.
To determine the production of NO indirectly, the Griess' method utilizing a diazo reaction is useful (Green, L. C. et al., (1982) Anal. Biochem, 126, 131-138). In the Griess' method, the Griess' reagent prepared by mixing naphthylethylenediamine and sulfanilic acid is reacted with NO2^− ion in the culture medium, and the color development thereof is measured by an absorbance at 540 nm.
(§3) The inhibitory effect of these compounds was expressed as IC50 value in Table 3.
Background: Griess reagent forms a coloured azo dye with nitrite.

Series [3] deals with TNF-α production. The series can be described thus: TNF-α production of LPS-stimulated RAW264.7 cells (ELISA). Format: cell-based, mouse. Conditions: RAW264.7 cells stimulated with LPS for 4 hours.
Text: as §1, §2, §3
A general note: In an ELISA, binding on a coated surface is turned into a signal by an enzyme label.

In series [4] the test system is sea pansy luciferase gene (pRL-SV40) under the control of SV40 promoter. Kind of series: Sea pansy luciferase under SV40 promoter (NF-κB independent) in A5 cells. Conditions: no stimulation, compound at 1 μg/ml for 4 hours. Format: cell-based, human. The procedure: The activity of sea pansy luciferase was measured based on the protocol by the Dual Luciferase Reporter Assay System (Promega, U.S.A.).

Series [5] concerns NF-κB. Kind of series: NF-κB-controlled firefly luciferase in A549/NF-κBLuc cells. Format: cell-based, human. How it is done: Experiment 2. Effect of compounds on A549 cells (A549/NF-κBLuc) stably transfected with luciferase plasmid (pNFκB-Luc) having the NF-κB regulatory sequence
Using lipofectamine (Lifetech oriental K.K., Tokyo), pNFκB-Luc (Stratagene, U.S.A.) were cotransfected with pSV2neo (Clontech, U.S.A.) into A549 cells according to the conventional method, and A549/NF-κBLuc stably transfected with pNFκB-Luc were selected by adding G418 sulfate ((1 mg/ml) Lifetech Oriental K.K.) to the culture medium.
NF-κB inhibiting activity was expressed as IC50 values in Table 2.

For series [6], the system named is rat models of carageenin foot pad edema. The series can be described thus: Carrageenin foot pad edema in rats. In kind it is in vivo. The following applies: male Wistar rats, 1 mg/kg intraperitoneally 15 minutes before carrageenin. The procedure:
FIG. 1 is a graph showing the result of Experiment 4 in which the compounds of Example 32 were studied using rat models of carageenin foot pad edema. Each point represents the mean±SE (n=5). Dunnett's test was carried out and the results are shown by * p<0.05 and ** p<0.01.
An aqueous solution of 1% λ-carrageenin (Wako Pure Chemical Industries) in physiological saline (0.1 ml) was intradermally administered to the pad of the left paw of 6-week old male Wistar rats weighing 149 g to 171 g, and changes in the volume of the paw were measured for indicated period. The test compound (0.3, 1 mg/kg) described in Example 32 was suspended in a solution of 0.5% hydroxypropyl cellulose in physiological saline (EPC, Nippon Soda Co., Ltd.) and was intraperitoneally given 15 minutes before the administration of carrageenin. For the control group, a solution of 0.5% HPC in physiological saline was used.

Where two headings read alike, the source gives them in different places.

Turning to `Cc1csc2ncnc(NC3Cc4ccccc4C3)c12` [Example 1, 4-(2-indanylamino)-5-methylthieno[2,3-d]pyrimidine], the figures for the IC50 in series [1] (Homo sapiens), in series [2] (Mus musculus) and in series [3] (Mus musculus) were 280 nM, 710 nM and 1100 nM, respectively.
Regarding `c1ccc2c(c1)CC(Nc1ncnc3occc13)C2` [Example 6, 4-(2-indanylamino)furo[2,3-d]pyrimidine], the IC50 (as a rule, the concentration that inhibits the measured activity by half) in series [1] (Homo sapiens) was found to be 800 nM.
As for `Cc1noc2ncnc(NC3Cc4ccccc4C3)c12` [Example 10, 3-methyl-4-(2-indanylamino)isoxazolo[5,4-d]pyrimidine], the melting point (as a rule, the temperature of the solid-liquid transition) turned out to be 208 °C.
Regarding `CC(C)c1csc2ncnc(NC3Cc4ccccc4C3)c12` [Example 22, 4-(2-indanylamino)-5-isopropylthieno[2,3-d]pyrimidine], the IC50 in series [1] (Homo sapiens) turned out to be 64 nM; in series [2] (Mus musculus) it was 64 nM; in series [3] (Mus musculus) it was 160 nM.
For `Cc1csc2ncnc(NC3Cc4ccc(Oc5ccccc5)cc4C3)c12` (stereo not shown) [Example 25, 4-(5-phenoxyindan-2-yl)amino-5-methylthieno[2,3-d]pyrimidine], in series [1] (Homo sapiens), the IC50 turned out to be 150 nM.
Turning to `Cc1csc2ncnc(NC3Cc4ccc(C(=O)NCc5ccccc5)cc4C3)c12` (stereo not shown) [Example 31, N-benzyl-2-(5-methylthieno[2,3-d]pyrimidine-4-yl)amino-5-indan carboxamide], in series [4], the “influence on the activity of sea pansy luciferase” value is given as “had no influence”. Further, the IC50 is 2.4 nM in series [1] (Homo sapiens), 24 nM in series [2] (Mus musculus) and 48 nM in series [3] (Mus musculus).
On to `Cc1csc2ncnc(NC3Cc4ccc(C(=O)N5CCOCC5)cc4C3)c12` (stereo not shown) [Example 32, 2-[5-methylthieno[2,3-d]pyrimidine-4-yl]aminoindan-5-carboxylic acid morpholinamide], for which the “influence on the activity of sea pansy luciferase” value in series [4] was “had no influence”. Further, the IC50 in series [5] (IL-1β (1 ng/ml) for 4 hours, read-out: IL-1β stimulation IC50 (NF-κB inhibiting activity)) turned out to be 51 nM; in series [5] (TNF-α (500 ng/ml) for 4 hours, read-out: TNF-α stimulation IC50 (NF-κB inhibiting activity)), 89 nM; in series [1], 51 nM; in series [2] it was 25 nM; in series [3], 51 nM. In series [6] (2 hours), the “edema formation at 2 hours” value is “significantly suppressed edema formation”. The “edema suppression at 3 hours and after” value in series [6] (3 hours and after) is reported as “high rate of edema suppression”.
In turn, `c1ccc2c(c1)CC(Nc1ncnc3nc[nH]c13)C2` [Example 37, 6-(2-indanylamino)purine] returned a melting point of no less than 300 °C.

For the origin of these results see US6734180B1, “NF-κB inhibitor comprising an indan derivative as an active ingredient” (Daiichi Suntory Pharma Co., Ltd., priority 1998, dated 2004).
